Consider one molecule from patent US20220185791A1, “POLYMORPHS OF A CARDIAC TROPONIN ACTIVATOR” (Amgen Inc., priority 2019, published 2022).

Data set [1] can be described thus: Solid stability (UPLC; XRPD, DSC, TGA). It is filed as physicochemical. The conditions noted are these: 5 weeks at 25° C./60% RH, 40° C./75% RH, 40° C./ambient or 60° C./ambient. The procedure: Drug substance was stored at 25° C./60% RH, 40° C./75% RH, 40° C./ambient or 60° C./ambient conditions. Chemical stability was determined at each time point by dissolving the drug substance in 50% acetonitrile water for ultra performance liquid chromatography (“UPLC”) analysis. Physical stability was determined by analyzing the solid by XRPD, DSC and TGA.

A short description of data set [2]: Solubility in water (excess solid, UPLC-UV). It counts as physicochemical. Conditions: thermodynamic from solid, room temperature. From the text:
Suspensions were filtered.

Converted amounts (≈) assume the structure as drawn.

Turning to `CS(=O)(=O)c1cncc(C(=O)N2[C@@H](C(=O)N[C@@H](c3cc(F)c(Cl)cc3F)C3CC3)C[C@H]3C[C@H]32)c1` [Form I, (1R,3R,5R)-N-((R)-(4-chloro-2,5-difluorophenyl)(cyclopropyl)methyl)-2-(5-(methylsulfonyl)nicotinoyl)-2-azabicyclo[3.1.0]hexane-3-carboxamide], the “Physical and chemical stability on storage” value in data set [1] is “physically and chemically stable”. The same molecule gave a solubility in data set [2] of 9 µg/mL (≈ 17.6 µM).
